Here are results for 28 compounds from PubChem BioAssay (NCI).

Values joined by “and” are separate entries in the source; they are usually repeats but may differ in a detail not shown here. Equal values may be shown once.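 Step 1: Grow cells in 96-well plates. Step 2: Expose to compound for 48 hours at 5 concentrations. Step 3: Interpolate endpoints linearly; if unreached, use highest concentration. Here, GI50 denotes the concentration required for 50% inhibition of growth. At the TGI there is no net growth.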

Common to all, as to experiment: NCI tumour cell line growth inhibition, 48 h
Test [1] has as its system NCI/ADR-RES ovarian.
Test [2] relates to SF-539 CNS.
Test [3] concerns TK-10 renal.
Test [4] relates to SK-MEL-28 melanoma.
Test [5] has as its system 786-0 renal.
In test [6] the test system is M14 melanoma.
For test [7], the system named is K-562 leukemia.
For test [8], the system named is U251 CNS.
The test system of test [9] is CCRF-CEM leukemia.
The test system of test [10] is MDA-N.
Test [11] relates to A498 renal.

`O=c1c2cc(I)ccc2nc(-c2cccs2)n1/N=C/c1ccccc1`: the TGI in test [1], in test [2], in test [3], in test [4], in test [5] and in [6] was > 100 µM in each case. The TGI in [7], in test [8] and in test [9] was > 100 µM each time.

On to `COc1cc(C=O)cc(O)c1O`, for which the TGI in test [2], in test [3], in [4], in [5], in [6] and in [7] was > 100 µM in each case. The TGI in [8] and in test [9] was > 100 µM in each case.

Consider `O=C1/C(=C/c2ccc(Cl)cc2)CSC/C1=C\c1ccc(Cl)cc1`, for which the TGI was > 100 µM in test [1]; 9.26 µM in [2]; 13 µM in test [3]; 5.51 µM in [4]; 9.73 µM in [5]; 3.92 µM in [6]. The TGI stood at 10.6 µM in [10], 10.1 µM in test [7], 3.04 µM in test [8] and 63.9 µM in test [9].

Consider `O=c1c([OH2+])c(-c2ccc(O)cc2[O-])oc2cc(O)cc([O-])c12.O=c1c([OH2+])c(-c2ccc(O)cc2[O-])oc2cc(O)cc([O-])c12.[Ti+4]`, for which, in [11], the GI50 was > 100 µM. Besides, the TGI in test [11], in [2], in test [3], in test [4], in test [5] and in [6] was > 100 µM in each case. The TGI in test [7] and in [9] was > 100 µM in each case.

`O=c1ccnc2ccc3n[nH][nH]c3c12`: the TGI in test [11], in test [2], in [3], in test [4], in test [5] and in [6] was > 100 µM in each case. In addition, the TGI in test [7], in test [8] and in test [9] was > 100 µM in each case.

`CCOC(=O)C(=O)NC12CC3CC(CC(C3)C1)C2`: the TGI in test [11], in test [2], in test [3], in test [4], in test [6] and in test [7] was > 100 µM in each case. Besides, the TGI in [8] and in [9] was > 100 µM each time.

`CC1C(c2ccccc2O)c2cc3c(cc2OC1N1CCOCC1)OCO3` (stereo unspecified): the TGI in test [11] is 52.1 µM; in test [2], 46.5 µM; in test [3] it was 97.6 µM; in test [4], > 100 µM; in test [5] it was > 100 µM; in test [6] it was > 100 µM. Also, the TGI in test [10] was > 100 µM; in [7] it was 90.6 µM; in test [8], 64.7 µM; in [9] it was 61.3 µM.

For `COc1cccc2c1C(=O)c1c(O)c3c(c(O)c1C2=O)C[C@@](O)(C(=O)CO)CC3OC1CC(NCCCC(OC(C)=O)OC(C)=O)C(O)C(C)O1` (stereo partly specified), the TGI is 0.00609 µM in test [11]; 0.00445 µM and 0.00115 µM in test [2]; > 1 µM in [3]; 0.00787 µM in [4]; 0.000729 µM in test [7]; > 1 µM in test [9]. For the same compound, the GI50 in test [2] is < 0.0001 µM; in [3] it was 0.363 µM; in [6], < 0.0001 µM; in [7], < 0.0001 µM; in [9], 0.000104 µM.

In the case of `CC(O)[C@@]1(c2ccccc2)CC2(CCN(C)CC2)O[C@H]1C` (stereo partly specified), the TGI in test [11], in test [1], in [2], in test [3], in test [4] and in [5] was > 100 µM throughout. Besides, the TGI in test [6] was > 100 µM; in test [7], > 100 µM; in test [8], > 100 µM; in test [9], 79 µM.

In the case of `CN(C(=O)c1ccco1)C(=S)N1CCN(c2ccccn2)CC1`, the TGI in test [2], in [3], in test [4], in test [5], in test [6] and in [7] was > 100 µM in each case. The TGI in test [8] and in [9] was > 100 µM in each case.

For `COc1cc2c[n+](C)c3c4cc(OC)c(OC)cc4ccc3c2cc1OC`, the TGI in test [11], in test [1], in [2], in test [3], in test [4] and in test [5] was > 100 µM each time. Also, the TGI in [6], in [7], in test [8] and in [9] was > 100 µM in each case. Besides, the GI50 in [1] is > 100 µM; in test [2], 71.3 µM and 29.9 µM; in [8] it was 14.3 µM and 7.05 µM.

With `NC(Cc1ccc(B(O)O)cc1)C(=O)NC(CO)CO` (stereo unspecified), the TGI in [1], in test [2], in [3], in [4], in [5] and in test [6] was > 100 µM in each case. For the same compound, the TGI in test [10], in test [7], in test [8] and in test [9] was > 100 µM throughout.

Regarding `CCCN(CCC)C1=Nc2ccccc2-n2cnnc2C1`, the TGI in test [2], in test [3], in test [4], in [5], in [6] and in test [7] was > 100 µM in each case. Also, the TGI in [8] and in test [9] was > 100 µM in each case.

In the case of `[N-]=[N+]=CC(=O)CCC(=O)N(c1ccccc1)c1ccccc1`, the TGI in test [11], in [2], in [3], in test [4], in test [5] and in [6] was > 10 µM each time. The TGI in [10], in [7], in test [8] and in test [9] was > 10 µM in each case.

As for `O=C1c2ccccc2C(=O)c2c(NCCCN3CCOCC3)ccc(NCCCN3CCOCC3)c21`, the TGI in test [11] was determined as 25.2 µM; in [2], 4.03 µM; in test [3], 39.1 µM; in [4], 19.8 µM; in test [5], 16.7 µM; in test [6] it was 10.1 µM. Further, the TGI in test [10] was 13.6 µM; in [7], > 100 µM; in test [8], 19 µM; in test [9], > 100 µM.

For the compound `CCOC(=O)C(OP(=O)(OCC)OCC)C(F)(F)F` (stereo unspecified), the TGI in [11], in [2], in test [3], in test [4], in test [6] and in test [10] was > 100 µM in each case. Also, the TGI in [7], in [8] and in [9] was > 100 µM in each case.

For the compound `O=C1NC(=S)NC(=O)C1=C/C=C/c1ccc([N+](=O)[O-])cc1`, the TGI was determined as 46.8 µM in [1]; 28.8 µM in [2]; 22.5 µM in test [3]; 10.4 µM in test [4]; 34.5 µM in [5]; 30.8 µM in [6]. Further, the figures for the TGI in [10], in [7] and in test [8] were 27.7 µM, > 100 µM and 19.6 µM, respectively.

As for `COC1C(O)C(C)OC(OC2CCC3(C)C(CCC4C3C(O)CC3(C)C(C5=CC(=O)OC5)CCC43O)C2)C1O` (stereo unspecified), the TGI in test [11] is 0.703 µM; in [2], 0.22 µM; in test [3] it was 1.57 µM; in test [4] it was 1.62 µM; in test [6], 1.02 µM; in [10], 0.905 µM. In test [7], the TGI is 5.28 µM.

As to `CC(=O)/C(C=Nc1c(C)n(C)n(C)c1=O)=C(/O)c1ccccc1`, the TGI in [11], in test [2], in [3], in test [4], in [5] and in test [6] was > 50 µM throughout. In addition, the TGI in test [10], in test [7], in test [8] and in test [9] was > 50 µM throughout.

Regarding `N#Cc1ccc(C2NN=CC23C(=O)c2ccccc2OC3c2ccccc2)cc1` (stereo unspecified), the TGI in test [11] is > 100 µM; in test [1] it was > 100 µM; in test [2], > 100 µM; in [3] it was 96.3 µM; in test [4], > 100 µM; in test [5] it was > 100 µM. Further, the TGI is > 100 µM in [6], > 100 µM in test [7], 55.7 µM in test [8] and > 100 µM in test [9].

Turning to `COc1cccc(-c2c(-c3ccccc3)[nH]c(C)c2C(=O)ONC(=O)c2ccccc2)c1`, the TGI in test [11] amounted to 28.5 µM; in test [1], 26 µM; in test [2], 18.4 µM; in [3], 22.1 µM; in test [4], 30.4 µM; in [5], 15.5 µM. The TGI in test [6] was 20 µM; in [7], 10.4 µM; in [8], 11.4 µM; in [9] it was > 27.3 µM.

`N#Cc1c(N2CCN(c3ccc([N+](=O)[O-])cc3)CC2)[n+](=O)c2ccccc2n1[O-]`: the TGI in [1], in [2], in [3], in test [4], in test [5] and in test [6] was > 100 µM each time. Further, the TGI in test [10], in [7], in test [8] and in test [9] was > 100 µM in each case.

On to `Cc1ccc(-c2cc(-c3ccco3)c(C#N)c(=O)n2C2OC(CO)C(O)C(O)C2O)cc1` (stereo unspecified), for which the TGI in test [11] is 50.9 µM; in [3], > 100 µM; in test [4], > 100 µM; in test [6], > 100 µM; in [7] it was > 100 µM; in test [8], > 100 µM. Moreover, in test [9], the TGI was > 100 µM.

On to `CC1=C2C3OC(=O)C(C)C3CCC2(C)C=CC1=Nc1ccccc1` (stereo unspecified), for which the TGI in test [11], in test [1], in test [2], in [4], in test [7] and in test [8] was > 100 µM in each case. Moreover, the TGI in test [9] was > 100 µM.

For the compound `O=[N+]([O-])C(=C/c1cccs1)/C(=C\c1cccs1)[N+](=O)[O-]`, the TGI in test [1] stood at 5.4 µM; in test [2], 0.417 µM; in [3] it was 7.76 µM; in test [4], 2.32 µM; in test [6], 6.88 µM; in [10], 2.65 µM. Moreover, the TGI was > 100 µM in test [7] and 0.276 µM in [9].

As to `CN(C(=O)c1ccc(OCCCC(=O)O)c(Cl)c1Cl)C1CCCC1`, the TGI in [11], in test [1], in [2], in test [4], in test [7] and in [8] was > 100 µM in each case. Further, in test [9], the TGI was > 100 µM.

As to `COC(=O)C1=C(CCC[C@H](C)O[Si](C)(C)C(C)(C)C)NC(=O)N2[C@@H](CCO)CC[C@H]12`, the TGI in test [11] turned out to be 31.1 µM; in test [1], 29.1 µM; in [2], 31.6 µM; in test [3] it was 35 µM; in [4] it was 35.5 µM; in test [5], 29.1 µM. Besides, the TGI is 30.9 µM in test [6], > 100 µM in test [7] and 29.6 µM in test [8].

Turning to `Cc1cc2nc(N3C(=O)/C(=C/c4ccc(N(C)C)cc4)N=C3c3ccccc3)sc2cc1C`, the TGI in test [1] was > 100 µM; in test [2] it was 53.4 µM; in [3], > 100 µM; in test [4], > 100 µM; in test [5] it was 49.9 µM; in test [6], 73.1 µM. The TGI was 33.8 µM in [10], > 100 µM in [7], > 100 µM in test [8] and 34 µM in test [9].
